# Test results: US12240857B2 (priority 2017, dated 2025)
# Where “and” joins values, the source holds several entries; their conditions need not be identical. Equal entries are not always repeated. Where two headings read alike, the source gives them in different places.
# How the values were obtained:
# [1] = tested on: EBOV mucin-domain-deleted glycoprotein pseudotyped VSV; test: microbe, parasite or virus in culture; assay type: cell-based, Zaire ebolavirus; conditions: Zaire ebolavirus, Vero
# [2] = tested on: BDBV mucin-domain-deleted glycoprotein pseudotyped VSV; test: microbe, parasite or virus in culture; assay type: cell-based, Bundibugyo ebolavirus; conditions: Vesicular stomatitis virus, Vero
# [3] = tested on: parent VSV virus expressing the native VSV glycoprotein; test: microbe, parasite or virus in culture; assay type: cell-based; conditions: Vesicular stomatitis virus, Vero, read-out: EC50 Pseudotype Assays VSV
# [4] = tested on: full-length Ebola Zaire GP pseudotyped VSV (EBOV_FL); test: microbe, parasite or virus in culture; assay type: cell-based; conditions: Zaire ebolavirus, read-out: EC50 Pseudotype Assays EBOV_FL
# [5] = tested on: full-length SUDV GP pseudotyped VSV; test: microbe, parasite or virus in culture; assay type: cell-based, Sudan ebolavirus; conditions: Vesicular stomatitis virus, read-out: EC50 Pseudotype Assays SUDV
# [6] = tested on: full-length Marburgvirus (MARV) GP pseudotyped VSV; test: microbe, parasite or virus in culture; assay type: cell-based, Marburg marburgvirus; conditions: Orthomarburgvirus, read-out: EC50 Pseudotype Assays MARV
# [7] = tested on: full-length LASV glycoprotein pseudotyped VSV; test: microbe, parasite or virus in culture; assay type: cell-based, Lassa virus; conditions: Vesicular stomatitis virus, read-out: EC50 Pseudotype Assays LASV
# wild-type Ebola Zaire [8] = tested on: wild-type Ebola Zaire
# wild-type Sudan Gulu [9] = tested on: wild-type Sudan Gulu
# in vitro [10] = conditions: African green monkey
# in vitro [11] = conditions: human, microsomes
# in vitro [12] = conditions: mouse, microsomes
# in vitro [13] = conditions: monkey, microsomes
# wild-type Ebola Zaire [14] = test: microbe, parasite or virus in culture; conditions: Zaire ebolavirus, HeLa, read-out: Ebola Zaire EC50
# wild-type Sudan Gulu [15] = test: microbe, parasite or virus in culture; conditions: Sudan ebolavirus, HeLa, read-out: Sudan Gulu EC50
# EBOV (Mayinga) [16] = test: microbe, parasite or virus in culture; assay type: cell-based, Zaire ebolavirus; conditions: for EC50: Zaire ebolavirus, Vero
# EBOV (Mayinga) [17] = test: microbe, parasite or virus in culture; assay type: cell-based, Zaire ebolavirus; conditions: for EC90: Zaire ebolavirus
# P-gp = P-gp (Homo sapiens, UniProt P08183)
# [18] = tested on: human Cyp-p450 enzymes 1A2, 2B6, 2C9, 2C19, 2D6
# [19] = in vivo
# in vivo = conditions: male, CD-1, mouse
# physchem = conditions: pH 7, aqueous buffer, kinetic from dmso stock
# in vitro [20] = conditions: human, Caco-2
# in vitro [21] = conditions: human
# in vitro [22] = conditions: mouse
# [23] = tested on: CYP1A2, CYP2B6, CYP2C9, CYP2C19, CYP2D6; test: in vitro; conditions: human
# human Cyp-p450 3A4 = human Cyp-p450 3A4 (Homo sapiens, UniProt P08684); test: biochemical
# hERG ion channel = hERG ion channel (Homo sapiens, UniProt Q12809); test: biochemical
# native EBOV virus = conditions: read-out: published EC50 against native EBOV virus; cited from earlier work
# Ebola virus infection = conditions: human, in vivo; cited from earlier work
# [24] = human, in vivo; cited from earlier work
# [25] = read-out: EC50 Pseudotype Assays EBOV
# [26] = read-out: EC50 Pseudotype Assays BDBV
# human Cyp-p450 3A4, sequence (P08684 whole entry): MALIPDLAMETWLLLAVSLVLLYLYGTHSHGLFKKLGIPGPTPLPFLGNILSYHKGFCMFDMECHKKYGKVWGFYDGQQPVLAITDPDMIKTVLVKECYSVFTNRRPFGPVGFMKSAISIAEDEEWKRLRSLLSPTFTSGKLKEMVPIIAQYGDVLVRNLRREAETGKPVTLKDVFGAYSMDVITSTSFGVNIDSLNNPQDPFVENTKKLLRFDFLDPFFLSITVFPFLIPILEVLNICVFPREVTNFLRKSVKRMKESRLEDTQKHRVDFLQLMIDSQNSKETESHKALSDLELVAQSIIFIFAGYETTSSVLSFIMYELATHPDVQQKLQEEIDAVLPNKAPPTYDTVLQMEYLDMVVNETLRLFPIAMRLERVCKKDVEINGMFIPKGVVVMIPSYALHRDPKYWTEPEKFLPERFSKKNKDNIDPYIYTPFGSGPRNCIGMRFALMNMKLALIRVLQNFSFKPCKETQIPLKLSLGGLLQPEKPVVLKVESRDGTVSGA
# P-gp, sequence (P08183 whole entry): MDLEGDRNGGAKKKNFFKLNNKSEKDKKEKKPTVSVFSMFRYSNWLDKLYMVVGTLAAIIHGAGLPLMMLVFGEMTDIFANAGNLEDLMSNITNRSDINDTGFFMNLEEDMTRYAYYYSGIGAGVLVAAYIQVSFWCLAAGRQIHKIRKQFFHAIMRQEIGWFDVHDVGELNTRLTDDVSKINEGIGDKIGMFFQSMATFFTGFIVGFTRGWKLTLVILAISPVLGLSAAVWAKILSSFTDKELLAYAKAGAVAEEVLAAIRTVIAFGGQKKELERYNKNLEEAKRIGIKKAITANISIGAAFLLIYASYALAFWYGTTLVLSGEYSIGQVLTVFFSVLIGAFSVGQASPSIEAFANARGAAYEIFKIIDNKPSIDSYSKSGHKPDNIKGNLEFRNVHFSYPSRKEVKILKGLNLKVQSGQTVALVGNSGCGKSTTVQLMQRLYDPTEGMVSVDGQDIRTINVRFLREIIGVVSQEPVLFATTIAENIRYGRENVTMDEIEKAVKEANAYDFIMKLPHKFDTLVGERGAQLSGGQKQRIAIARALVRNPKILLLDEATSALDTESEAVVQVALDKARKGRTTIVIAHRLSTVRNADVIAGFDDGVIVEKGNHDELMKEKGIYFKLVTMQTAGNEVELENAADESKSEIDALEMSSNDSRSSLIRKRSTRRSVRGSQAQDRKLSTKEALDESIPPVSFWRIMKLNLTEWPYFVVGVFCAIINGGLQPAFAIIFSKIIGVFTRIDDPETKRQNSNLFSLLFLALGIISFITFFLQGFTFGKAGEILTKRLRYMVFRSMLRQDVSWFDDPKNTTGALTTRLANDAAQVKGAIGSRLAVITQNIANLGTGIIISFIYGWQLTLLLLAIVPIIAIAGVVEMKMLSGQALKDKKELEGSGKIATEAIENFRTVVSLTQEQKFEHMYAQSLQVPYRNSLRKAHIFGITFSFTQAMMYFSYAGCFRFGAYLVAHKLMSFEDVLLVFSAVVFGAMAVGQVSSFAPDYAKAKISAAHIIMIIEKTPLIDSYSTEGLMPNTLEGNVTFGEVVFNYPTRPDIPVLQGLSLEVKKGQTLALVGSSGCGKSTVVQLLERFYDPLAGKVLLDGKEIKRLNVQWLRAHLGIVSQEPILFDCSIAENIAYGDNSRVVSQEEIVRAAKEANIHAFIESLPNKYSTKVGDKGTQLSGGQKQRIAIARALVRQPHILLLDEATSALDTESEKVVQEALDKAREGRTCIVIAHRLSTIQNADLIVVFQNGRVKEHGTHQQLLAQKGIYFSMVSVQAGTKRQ
# hERG ion channel, sequence (Q12809 whole entry): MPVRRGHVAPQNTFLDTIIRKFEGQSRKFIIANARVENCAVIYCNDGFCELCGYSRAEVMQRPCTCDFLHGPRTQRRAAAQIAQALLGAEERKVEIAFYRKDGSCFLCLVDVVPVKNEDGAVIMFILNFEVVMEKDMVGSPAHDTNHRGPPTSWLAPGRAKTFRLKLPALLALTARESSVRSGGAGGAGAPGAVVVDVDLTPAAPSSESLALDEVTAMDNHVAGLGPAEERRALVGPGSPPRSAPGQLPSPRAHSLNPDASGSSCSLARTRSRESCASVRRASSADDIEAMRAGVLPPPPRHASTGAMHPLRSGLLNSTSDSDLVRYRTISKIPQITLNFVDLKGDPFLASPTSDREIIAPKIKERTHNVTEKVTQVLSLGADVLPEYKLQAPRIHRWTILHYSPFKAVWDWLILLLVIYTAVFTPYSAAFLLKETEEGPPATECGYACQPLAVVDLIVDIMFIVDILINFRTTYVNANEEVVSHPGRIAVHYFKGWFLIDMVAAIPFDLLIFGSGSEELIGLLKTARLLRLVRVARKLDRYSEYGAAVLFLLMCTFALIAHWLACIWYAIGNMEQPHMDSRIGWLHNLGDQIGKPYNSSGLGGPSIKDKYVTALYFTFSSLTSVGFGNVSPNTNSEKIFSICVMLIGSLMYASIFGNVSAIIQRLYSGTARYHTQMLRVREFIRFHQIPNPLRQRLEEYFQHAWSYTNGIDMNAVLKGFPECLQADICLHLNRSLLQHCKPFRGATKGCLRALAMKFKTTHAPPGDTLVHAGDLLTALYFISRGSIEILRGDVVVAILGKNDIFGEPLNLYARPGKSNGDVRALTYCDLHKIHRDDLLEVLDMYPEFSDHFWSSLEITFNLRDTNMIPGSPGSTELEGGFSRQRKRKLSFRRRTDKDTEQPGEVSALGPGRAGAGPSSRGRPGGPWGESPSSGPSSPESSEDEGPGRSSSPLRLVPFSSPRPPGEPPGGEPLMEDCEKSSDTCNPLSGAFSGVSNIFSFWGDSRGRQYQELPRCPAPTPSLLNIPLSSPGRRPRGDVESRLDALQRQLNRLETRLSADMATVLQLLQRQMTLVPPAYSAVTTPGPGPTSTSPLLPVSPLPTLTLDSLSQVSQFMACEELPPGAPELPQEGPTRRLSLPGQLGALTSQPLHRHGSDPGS
compound,measurement,setting,value
CC12CC3CC(C(=O)NC4CCNCC4)(C1)CC(c1ccccc1)(C3)C2 (centres unmarked) [Example A68],EC50,[1]; read-out: EC50 EBOV,35 nM
same,EC50,[1]; [25],40 nM
same,EC50,[2]; read-out: EC50 BDBV,160 nM
same,EC50,[2]; [26],170 nM
same,EC50,[3],> 10 µM
same,EC50,[4],40 nM
same,EC50,[5],410 nM
same,EC50,[6],2800 nM
same,EC50,[7],> 10 µM
same,Ebola Zaire SI (CC50/EC50),wild-type Ebola Zaire [8],134
same,Sudan Gulu SI (CC50/EC50),wild-type Sudan Gulu [9],181
same,CC50,in vitro [10]; CC50,> 10 µM
same,CC50,in vitro [10]; Cytotox CC50,> 10 µM
same,half-life,in vitro [11],187 min
same,half-life,in vitro [12],> 240 min
same,half-life,in vitro [13],142 min
same,EC50,wild-type Ebola Zaire [14],180 nM
same,EC50,wild-type Sudan Gulu [15],130 nM
CC12CC3CC(C(=O)N[C@H]4CC[C@H](N)CC4)(C1)CC(c1ccccc1)(C3)C2.Cl (some centres unmarked) [Example A78],EC50,[1]; read-out: EC50 EBOV,20 nM
same,EC50,[1]; [25],20 nM
same,EC50,[2]; read-out: EC50 BDBV,90 nM
same,EC50,[2]; [26],90 nM
same,EC50,[3],> 10 µM
same,EC50,[4],50 nM
same,EC50,[5],210 nM
same,EC50,[6],3500 nM
same,EC50,[7],> 10 µM
same,SI50 (CC50/EC50),EBOV (Mayinga) [16],41.5
same,EC50,EBOV (Mayinga) [16],1100 nM
same,SI90 (CC50/EC90),EBOV (Mayinga) [17],8.2
same,EC90,EBOV (Mayinga) [17],5.6 µM
same,Ebola Zaire SI (CC50/EC50),wild-type Ebola Zaire [8],268.2
same,Sudan Gulu SI (CC50/EC50),wild-type Sudan Gulu [9],264.3
same,P-gp substrate ID Caco-2 Permeability (+Verapamil) Paap Mean A > B,P-gp,8.47 10^−6 cm s^−1
same,P-gp substrate ID Caco-2 Permeability (+Verapamil) Paap Mean B > A,P-gp,7.45 10^−6 cm s^−1
same,"Cyp-p450 inhibition IC50, 1A2, 2B6, 2C9, 2C19",[18],not an inhibitor
same,F,"[19]; male, CD-1, mouse",72%
same,CI,"[19]; male, CD-1, mouse, iv, 1 mg/kg",1783 mL/h/kg
same,clearance,[19]; mouse,less than hepatic blood flow
same,Vd,in vivo,14 L/kg
same,half-life,in vivo,426 min
same,half-life,in vivo; 10 mg/kg,420 min
same,AUC(0-inf),"in vivo; iv, 1 mg/kg",561 ng·h/mL
same,AUC(0-t),"in vivo; iv, 1 mg/kg",539 ± 23 ng·h/mL
same,Cmax,"in vivo; iv, 1 mg/kg",129 ± 40 ng/mL
same,Tmax,"in vivo; iv, 1 mg/kg",0.083 h
same,Vd,"in vivo; iv, 1 mg/kg",13.9 L/kg
same,half-life,"in vivo; iv, 1 mg/kg",324 min
same,AUC(0-inf),"in vivo; po, 10 mg/kg",4040 ng·h/mL
same,AUC(0-t),"in vivo; po, 10 mg/kg",3590 ± 576 ng·h/mL
same,Cmax,"in vivo; po, 10 mg/kg",239 ± 46 ng/mL
same,Tmax,"in vivo; po, 10 mg/kg",6 h
same,bioavailability,"in vivo; po, 10 mg/kg",72%
same,half-life,"in vivo; po, 10 mg/kg",426 min
same,CC50,in vitro [10]; Cytotox CC50,> 10 µM
same,half-life,in vitro [11],462 min
same,half-life,in vitro [12],267 min
same,half-life,in vitro [13],> 120 min
same,solubility,physchem,> 500 µM
same,Papp A→B,in vitro [20],3.61 ×10⁻⁶ cm/s
same,Papp B→A,in vitro [20],15.6 ×10⁻⁶ cm/s
same,efflux ratio,in vitro [20],4.32
same,fraction unbound,in vitro [21],0.025
same,fraction unbound,in vitro [22],0.014
same,IC50,[23],≥ 90 µM
same,IC50,"human Cyp-p450 3A4; Cyp-p450 inhibition IC50, 3A4 (Midazolam)",> 100 µM
same,IC50,"human Cyp-p450 3A4; Cyp-p450 inhibition IC50, 3A4 (Testosterone)",~28 µM and 28 µM
same,IC50,hERG ion channel,> 10 µM
same,EC50,wild-type Ebola Zaire [14],210 nM
same,EC50,wild-type Sudan Gulu [15],210 nM
CCC12CC3CC(C(=O)NC4CCNCC4)(C1)CC(c1ccccc1)(C3)C2 (centres unmarked) [Example A80],EC50,[1]; read-out: EC50 EBOV,10 nM
same,EC50,[1]; [25],20 nM
same,EC50,[2]; read-out: EC50 BDBV,50 nM
same,EC50,[2]; [26],60 nM
same,EC50,[3],> 10 µM
same,EC50,[4],40 nM
same,EC50,[5],400 nM
same,EC50,[6],1100 nM
same,EC50,[7],> 10 µM
same,SI50 (CC50/EC50),EBOV (Mayinga) [16],95.6
same,EC50,EBOV (Mayinga) [16],890 nM
same,SI90 (CC50/EC90),EBOV (Mayinga) [17],9.6
same,EC90,EBOV (Mayinga) [17],8.9 µM
same,Ebola Zaire SI (CC50/EC50),wild-type Ebola Zaire [8],137
same,Sudan Gulu SI (CC50/EC50),wild-type Sudan Gulu [9],130
same,CC50,in vitro [10]; CC50,10 µM
same,CC50,in vitro [10]; Cytotox CC50,> 10 µM
same,half-life,in vitro [11],103 min
same,half-life,in vitro [12],> 120 min
same,half-life,in vitro [13],89 min
same,EC50,wild-type Ebola Zaire [14],130 nM
same,EC50,wild-type Sudan Gulu [15],140 nM
CCC12CC3CC(C(=O)N[C@H]4CC[C@H](N)CC4)(C1)CC(c1ccccc1)(C3)C2 (some centres unmarked) [Example A85],EC50,[1]; read-out: EC50 EBOV,13 nM
same,EC50,[2]; read-out: EC50 BDBV,96 nM
same,Ebola Zaire SI (CC50/EC50),wild-type Ebola Zaire [8],112
same,Sudan Gulu SI (CC50/EC50),wild-type Sudan Gulu [9],64
same,CC50,in vitro [10]; CC50,12.1 µM
same,half-life,in vitro [11],> 120 min
same,half-life,in vitro [12],> 120 min
same,half-life,in vitro [13],84 min
same,EC50,wild-type Ebola Zaire [14],100 nM
same,EC50,wild-type Sudan Gulu [15],180 nM
NC(=O)c1nc(F)c[nH]c1=O [favipiravir],SI90 (CC50/EC90),EBOV (Mayinga) [17],3
same,EC90,EBOV (Mayinga) [17],333 µM
same,EC50,native EBOV virus,67 µM
same,drop in viral load,Ebola virus infection,3-4 log
same,half-life in humans,[24],1 to 4 h
